Columns and labels:
Assay in all cases: Kinase profiling in a biochemical assay panel (mobility shift assays and ELISA), %-inhibition at 1 μM; selectivity entropy
[1] = target: T1, panel of more than 300 wild-type and mutant kinases (313 kinase panel) (Homo sapiens, UniProt O60285)
T1 sequence (O60285 1-661): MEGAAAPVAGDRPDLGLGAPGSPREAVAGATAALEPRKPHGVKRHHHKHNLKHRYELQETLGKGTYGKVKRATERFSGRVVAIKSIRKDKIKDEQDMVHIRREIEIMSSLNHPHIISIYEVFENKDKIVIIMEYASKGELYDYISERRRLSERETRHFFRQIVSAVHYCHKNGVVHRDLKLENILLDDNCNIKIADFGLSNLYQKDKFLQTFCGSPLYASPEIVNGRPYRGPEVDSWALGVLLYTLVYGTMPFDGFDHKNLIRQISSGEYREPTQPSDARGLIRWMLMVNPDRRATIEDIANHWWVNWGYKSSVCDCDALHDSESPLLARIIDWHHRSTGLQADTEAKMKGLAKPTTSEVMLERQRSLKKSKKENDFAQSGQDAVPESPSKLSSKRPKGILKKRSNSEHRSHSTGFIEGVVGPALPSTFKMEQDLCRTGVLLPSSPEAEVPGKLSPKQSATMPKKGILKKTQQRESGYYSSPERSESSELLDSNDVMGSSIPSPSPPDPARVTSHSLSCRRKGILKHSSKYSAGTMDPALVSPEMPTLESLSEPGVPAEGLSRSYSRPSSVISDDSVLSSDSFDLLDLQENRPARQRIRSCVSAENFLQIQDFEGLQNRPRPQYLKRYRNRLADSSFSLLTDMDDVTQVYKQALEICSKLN

[2] = target: panel of more than 300 wild-type and mutant kinases (313 kinase panel) (Homo sapiens, UniProt O60674)
[3] = target: T2, panel of more than 300 wild-type and mutant kinases (313 kinase panel) (Homo sapiens, UniProt O94806)
T2 sequence (O94806 1-890): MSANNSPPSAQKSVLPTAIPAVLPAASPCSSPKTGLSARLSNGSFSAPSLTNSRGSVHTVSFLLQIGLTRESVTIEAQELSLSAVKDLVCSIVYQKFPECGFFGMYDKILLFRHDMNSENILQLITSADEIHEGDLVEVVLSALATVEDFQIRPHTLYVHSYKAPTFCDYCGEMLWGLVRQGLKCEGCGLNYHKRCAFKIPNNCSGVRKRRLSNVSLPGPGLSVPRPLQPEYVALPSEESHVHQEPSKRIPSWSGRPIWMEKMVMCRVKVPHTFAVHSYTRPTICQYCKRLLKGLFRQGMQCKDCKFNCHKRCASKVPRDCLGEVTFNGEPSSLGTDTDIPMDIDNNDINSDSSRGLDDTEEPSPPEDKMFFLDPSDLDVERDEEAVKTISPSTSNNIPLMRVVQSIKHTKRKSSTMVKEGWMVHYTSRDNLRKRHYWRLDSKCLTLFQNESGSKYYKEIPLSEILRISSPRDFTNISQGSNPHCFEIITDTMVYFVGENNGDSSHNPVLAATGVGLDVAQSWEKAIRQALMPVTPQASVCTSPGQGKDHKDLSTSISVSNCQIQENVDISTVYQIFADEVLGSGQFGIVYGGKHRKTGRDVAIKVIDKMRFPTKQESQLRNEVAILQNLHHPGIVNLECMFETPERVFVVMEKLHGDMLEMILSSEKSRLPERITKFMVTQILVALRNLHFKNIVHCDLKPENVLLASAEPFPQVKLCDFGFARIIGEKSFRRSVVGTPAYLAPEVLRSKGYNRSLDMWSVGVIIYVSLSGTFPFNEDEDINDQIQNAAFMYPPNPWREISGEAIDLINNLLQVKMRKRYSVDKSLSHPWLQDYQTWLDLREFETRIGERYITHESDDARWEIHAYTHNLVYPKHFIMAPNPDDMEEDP

[4] = target: panel of more than 300 wild-type and mutant kinases (313 kinase panel) (Homo sapiens, UniProt P31749)
[5] = target: panel of more than 300 wild-type and mutant kinases (313 kinase panel) (Homo sapiens, UniProt P42685)
[6] = target: panel of more than 300 wild-type and mutant kinases (313 kinase panel) (Homo sapiens, UniProt P51957)
[7] = target: panel of more than 300 wild-type and mutant kinases (313 kinase panel) (Homo sapiens, UniProt P53355)
[8] = target: panel of more than 300 wild-type and mutant kinases (313 kinase panel) (Homo sapiens, UniProt P54764)
[9] = target: panel of more than 300 wild-type and mutant kinases (313 kinase panel) (Homo sapiens, UniProt Q13164)
[10] = target: panel of more than 300 wild-type and mutant kinases (313 kinase panel) (Homo sapiens, UniProt Q15375)
[11] = target: panel of more than 300 wild-type and mutant kinases (313 kinase panel) (Homo sapiens, UniProt Q9NYY3)
[12] = target: panel of more than 300 wild-type and mutant kinases (313 kinase panel) (Homo sapiens, UniProt Q9Y6E0)

Chain of panel of more than 300 wild-type and mutant kinases (313 kinase panel) (Homo sapiens, UniProt O60674) (O60674 whole entry, change not shown): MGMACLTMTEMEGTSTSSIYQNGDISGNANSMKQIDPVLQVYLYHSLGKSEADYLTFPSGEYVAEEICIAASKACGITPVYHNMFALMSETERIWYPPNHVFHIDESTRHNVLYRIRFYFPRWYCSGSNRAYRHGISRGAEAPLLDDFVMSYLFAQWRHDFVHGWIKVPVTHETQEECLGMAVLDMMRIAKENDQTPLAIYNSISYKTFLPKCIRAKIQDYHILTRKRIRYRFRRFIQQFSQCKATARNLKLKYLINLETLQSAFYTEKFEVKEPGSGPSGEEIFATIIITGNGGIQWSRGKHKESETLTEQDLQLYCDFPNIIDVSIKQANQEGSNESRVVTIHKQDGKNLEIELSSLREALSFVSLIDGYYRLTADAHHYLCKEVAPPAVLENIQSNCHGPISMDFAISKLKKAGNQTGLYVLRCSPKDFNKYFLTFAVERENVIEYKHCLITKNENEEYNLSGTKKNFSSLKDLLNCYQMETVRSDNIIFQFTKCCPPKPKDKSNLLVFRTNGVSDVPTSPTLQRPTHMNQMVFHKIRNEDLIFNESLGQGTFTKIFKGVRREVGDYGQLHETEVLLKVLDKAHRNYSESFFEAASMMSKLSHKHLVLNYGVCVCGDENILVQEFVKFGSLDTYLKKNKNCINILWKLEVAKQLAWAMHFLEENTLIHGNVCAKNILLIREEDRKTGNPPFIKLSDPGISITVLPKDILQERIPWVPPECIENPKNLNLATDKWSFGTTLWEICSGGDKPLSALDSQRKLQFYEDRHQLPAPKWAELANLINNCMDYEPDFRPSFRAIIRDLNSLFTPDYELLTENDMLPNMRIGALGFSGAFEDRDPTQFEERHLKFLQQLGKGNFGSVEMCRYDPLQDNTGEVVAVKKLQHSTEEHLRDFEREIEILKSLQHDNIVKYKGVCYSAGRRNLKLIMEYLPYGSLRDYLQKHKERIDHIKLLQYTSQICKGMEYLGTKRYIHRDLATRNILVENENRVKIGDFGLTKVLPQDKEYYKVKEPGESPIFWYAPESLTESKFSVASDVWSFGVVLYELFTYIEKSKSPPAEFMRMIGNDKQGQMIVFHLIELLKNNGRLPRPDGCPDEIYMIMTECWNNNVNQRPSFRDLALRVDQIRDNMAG
Chain of panel of more than 300 wild-type and mutant kinases (313 kinase panel) (Homo sapiens, UniProt P42685) (P42685 whole entry, change not shown): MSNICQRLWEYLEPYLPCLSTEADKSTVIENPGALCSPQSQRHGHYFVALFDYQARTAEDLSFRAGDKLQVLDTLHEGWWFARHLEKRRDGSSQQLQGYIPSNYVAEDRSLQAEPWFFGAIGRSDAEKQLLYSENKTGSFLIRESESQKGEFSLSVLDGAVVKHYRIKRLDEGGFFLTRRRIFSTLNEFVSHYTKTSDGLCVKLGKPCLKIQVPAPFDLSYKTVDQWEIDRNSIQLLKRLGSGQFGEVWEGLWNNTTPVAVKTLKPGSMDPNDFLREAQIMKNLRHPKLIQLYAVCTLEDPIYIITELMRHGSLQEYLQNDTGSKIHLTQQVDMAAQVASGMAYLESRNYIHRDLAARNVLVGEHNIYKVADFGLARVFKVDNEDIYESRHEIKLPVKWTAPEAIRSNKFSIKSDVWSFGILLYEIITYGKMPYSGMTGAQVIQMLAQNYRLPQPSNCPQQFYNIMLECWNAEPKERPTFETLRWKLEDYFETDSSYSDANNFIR
Chain of panel of more than 300 wild-type and mutant kinases (313 kinase panel) (Homo sapiens, UniProt P31749) (P31749 whole entry, change not shown): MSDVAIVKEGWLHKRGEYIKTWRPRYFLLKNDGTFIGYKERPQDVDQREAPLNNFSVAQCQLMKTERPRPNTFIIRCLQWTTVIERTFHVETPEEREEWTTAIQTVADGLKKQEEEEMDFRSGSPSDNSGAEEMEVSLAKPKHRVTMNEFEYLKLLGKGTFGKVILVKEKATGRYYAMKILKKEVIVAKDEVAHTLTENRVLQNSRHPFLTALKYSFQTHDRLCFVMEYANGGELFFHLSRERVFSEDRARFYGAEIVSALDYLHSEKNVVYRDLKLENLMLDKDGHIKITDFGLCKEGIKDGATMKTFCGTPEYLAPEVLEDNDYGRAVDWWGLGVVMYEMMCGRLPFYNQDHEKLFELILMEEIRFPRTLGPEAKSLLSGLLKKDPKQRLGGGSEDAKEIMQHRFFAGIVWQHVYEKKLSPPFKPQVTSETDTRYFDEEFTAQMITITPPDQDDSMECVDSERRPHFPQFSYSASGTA
Chain of panel of more than 300 wild-type and mutant kinases (313 kinase panel) (Homo sapiens, UniProt Q15375) (Q15375 28-998, change not shown): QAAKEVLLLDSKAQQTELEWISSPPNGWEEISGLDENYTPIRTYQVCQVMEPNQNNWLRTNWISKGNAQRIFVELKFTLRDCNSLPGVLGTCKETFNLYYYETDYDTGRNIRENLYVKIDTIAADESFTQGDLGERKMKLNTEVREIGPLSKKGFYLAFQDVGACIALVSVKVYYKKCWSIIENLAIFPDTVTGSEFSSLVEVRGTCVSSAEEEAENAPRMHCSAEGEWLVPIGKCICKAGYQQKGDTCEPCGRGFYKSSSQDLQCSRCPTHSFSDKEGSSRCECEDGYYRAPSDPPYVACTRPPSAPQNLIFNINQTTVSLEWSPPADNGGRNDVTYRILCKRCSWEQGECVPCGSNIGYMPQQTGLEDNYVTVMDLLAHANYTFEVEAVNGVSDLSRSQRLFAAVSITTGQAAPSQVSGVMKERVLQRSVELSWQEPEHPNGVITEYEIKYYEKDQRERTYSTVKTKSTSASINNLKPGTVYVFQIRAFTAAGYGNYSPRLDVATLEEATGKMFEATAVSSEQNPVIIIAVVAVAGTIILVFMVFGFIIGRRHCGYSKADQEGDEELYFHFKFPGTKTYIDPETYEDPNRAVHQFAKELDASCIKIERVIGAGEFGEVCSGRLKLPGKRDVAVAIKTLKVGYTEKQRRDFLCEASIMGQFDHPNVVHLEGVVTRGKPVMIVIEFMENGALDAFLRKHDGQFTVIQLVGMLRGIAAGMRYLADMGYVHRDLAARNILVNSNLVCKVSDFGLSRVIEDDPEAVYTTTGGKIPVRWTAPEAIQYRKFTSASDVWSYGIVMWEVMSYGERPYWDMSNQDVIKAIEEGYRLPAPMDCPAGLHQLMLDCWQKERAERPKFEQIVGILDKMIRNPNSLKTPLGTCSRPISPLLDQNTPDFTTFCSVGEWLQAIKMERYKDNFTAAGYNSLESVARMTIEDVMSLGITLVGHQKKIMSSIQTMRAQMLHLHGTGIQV
Chain of panel of more than 300 wild-type and mutant kinases (313 kinase panel) (Homo sapiens, UniProt P51957) (P51957 whole entry, change not shown): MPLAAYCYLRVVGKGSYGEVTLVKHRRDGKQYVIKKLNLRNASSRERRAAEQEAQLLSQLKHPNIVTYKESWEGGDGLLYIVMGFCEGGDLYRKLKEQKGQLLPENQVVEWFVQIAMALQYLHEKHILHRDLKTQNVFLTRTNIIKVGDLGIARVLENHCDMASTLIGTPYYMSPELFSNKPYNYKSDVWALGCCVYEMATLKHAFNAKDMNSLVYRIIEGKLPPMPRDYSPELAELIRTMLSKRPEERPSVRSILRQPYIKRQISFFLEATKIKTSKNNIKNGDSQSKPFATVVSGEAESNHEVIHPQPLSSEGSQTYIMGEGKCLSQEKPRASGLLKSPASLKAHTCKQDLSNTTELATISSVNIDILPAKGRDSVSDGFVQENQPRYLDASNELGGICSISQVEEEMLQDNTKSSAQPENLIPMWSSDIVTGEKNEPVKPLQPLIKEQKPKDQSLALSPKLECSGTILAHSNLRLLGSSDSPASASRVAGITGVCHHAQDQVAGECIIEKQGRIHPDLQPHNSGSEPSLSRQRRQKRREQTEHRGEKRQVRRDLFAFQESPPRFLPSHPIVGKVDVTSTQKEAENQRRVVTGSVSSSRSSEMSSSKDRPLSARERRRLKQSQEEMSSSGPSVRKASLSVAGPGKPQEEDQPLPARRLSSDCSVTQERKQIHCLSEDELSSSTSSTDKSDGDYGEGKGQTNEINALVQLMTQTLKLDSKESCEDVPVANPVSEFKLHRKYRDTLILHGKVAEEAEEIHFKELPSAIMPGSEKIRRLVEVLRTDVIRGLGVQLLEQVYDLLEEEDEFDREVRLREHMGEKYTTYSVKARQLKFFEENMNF
Chain of panel of more than 300 wild-type and mutant kinases (313 kinase panel) (Homo sapiens, UniProt P54764) (P54764 20-986, change not shown): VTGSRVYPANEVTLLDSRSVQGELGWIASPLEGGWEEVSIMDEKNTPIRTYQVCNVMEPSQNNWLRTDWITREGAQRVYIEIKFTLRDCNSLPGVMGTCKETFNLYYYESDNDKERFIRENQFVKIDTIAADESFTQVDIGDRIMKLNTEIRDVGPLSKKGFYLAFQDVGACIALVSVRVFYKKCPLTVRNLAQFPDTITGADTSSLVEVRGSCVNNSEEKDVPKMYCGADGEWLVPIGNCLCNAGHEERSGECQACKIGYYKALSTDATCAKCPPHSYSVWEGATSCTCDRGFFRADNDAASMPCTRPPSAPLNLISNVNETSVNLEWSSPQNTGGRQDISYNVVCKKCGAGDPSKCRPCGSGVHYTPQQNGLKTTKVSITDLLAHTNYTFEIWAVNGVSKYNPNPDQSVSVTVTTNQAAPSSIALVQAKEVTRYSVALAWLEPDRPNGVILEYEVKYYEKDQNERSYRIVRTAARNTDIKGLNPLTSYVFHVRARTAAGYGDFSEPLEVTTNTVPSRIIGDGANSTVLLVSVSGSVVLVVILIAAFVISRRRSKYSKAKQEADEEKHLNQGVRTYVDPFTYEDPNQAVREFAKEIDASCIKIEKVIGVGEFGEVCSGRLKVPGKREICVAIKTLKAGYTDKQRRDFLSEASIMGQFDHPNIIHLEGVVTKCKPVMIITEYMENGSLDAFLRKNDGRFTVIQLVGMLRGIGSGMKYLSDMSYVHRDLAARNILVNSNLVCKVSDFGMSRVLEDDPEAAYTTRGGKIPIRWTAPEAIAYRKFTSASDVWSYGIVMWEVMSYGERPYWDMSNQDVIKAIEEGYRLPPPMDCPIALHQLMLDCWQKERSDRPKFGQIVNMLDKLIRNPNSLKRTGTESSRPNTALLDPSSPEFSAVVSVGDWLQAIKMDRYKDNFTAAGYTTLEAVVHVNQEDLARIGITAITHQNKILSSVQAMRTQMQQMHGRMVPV

## CCCS(=O)(=O)Nc1ccc(F)c(C(=O)c2c[nH]c3ncc(-c4ccc(Cl)cc4)cc23)c1F [vemurafenib]
[1]; kinase NuaK1, 1 μM
  %-inhibition of NuaK1: 4%
[2]; kinase JAK2, compound at 1 μM
  %-inhibition of JAK2: 18%
[3]; kinase PKD3, 1 μM
  %-inhibition of PKD3: -4.7%
[4]; kinase AKT1, 1 μM compound
  %-inhibition, AKT1: -4.52%
[5]; kinase FRK, compound at 1 μM
  %-inhibition of FRK: 62%
[6]; kinase NEK4, 1 μM
  %-inhibition of NEK4: -0.416%
[7]; kinase DAPK1, compound at 1 μM
  %-inhibition of DAPK1: -0.115%
[8]; kinase EPHA4, compound at 1 μM
  %-inhibition of EPHA4: -2%
[9]; kinase Erk5, compound at 1 μM
  %-inhibition of Erk5: 0.709%
[10]; kinase EPHA7, compound at 1 μM
  %-inhibition of EPHA7: -0.639%
[11]; kinase PLK2, 1 μM
  %-inhibition of PLK2: -1.85%
[12]; kinase MST3, 1 μM
  %-inhibition of MST3: -1.73%

## O=S(=O)(c1cccc2cnccc12)N1CCCNCC1 [fasudil]
[1]; kinase NuaK1, 1 μM
  %-inhibition of NuaK1: 44%
[2]; kinase JAK2, compound at 1 μM
  %-inhibition of JAK2: 3.24%
[3]; kinase PKD3, 1 μM
  %-inhibition of PKD3: 37%
[4]; kinase AKT1, 1 μM compound
  %-inhibition, AKT1: 4.44%
[5]; kinase FRK, compound at 1 μM
  %-inhibition of FRK: -3%
[6]; kinase NEK4, 1 μM
  %-inhibition of NEK4: -1.87%
[7]; kinase DAPK1, compound at 1 μM
  %-inhibition of DAPK1: 10%
[8]; kinase EPHA4, compound at 1 μM
  %-inhibition of EPHA4: -6%
[9]; kinase Erk5, compound at 1 μM
  %-inhibition of Erk5: -3.32%
[10]; kinase EPHA7, compound at 1 μM
  %-inhibition of EPHA7: -5%
[11]; kinase PLK2, 1 μM
  %-inhibition of PLK2: 7%
[12]; kinase MST3, 1 μM
  %-inhibition of MST3: -1.29%

## Cc1ccc(Nc2nccc(N(C)c3ccc4c(C)n(C)nc4c3)n2)cc1S(N)(=O)=O [pazopanib]
[1]; kinase NuaK1, 1 μM
  %-inhibition of NuaK1: 73%
[2]; kinase JAK2, compound at 1 μM
  %-inhibition of JAK2: 50%
[4]; kinase AKT1, 1 μM compound
  %-inhibition, AKT1: -2%
[6]; kinase NEK4, 1 μM
  %-inhibition of NEK4: 12%
[7]; kinase DAPK1, compound at 1 μM
  %-inhibition of DAPK1: 0.316%
[8]; kinase EPHA4, compound at 1 μM
  %-inhibition of EPHA4: 22%
[9]; kinase Erk5, compound at 1 μM
  %-inhibition of Erk5: 16%
[10]; kinase EPHA7, compound at 1 μM
  %-inhibition of EPHA7: 12%
[11]; kinase PLK2, 1 μM
  %-inhibition of PLK2: 1.23%
[12]; kinase MST3, 1 μM
  %-inhibition of MST3: -4.48%

## CNC(=O)c1cc(Oc2ccc(NC(=O)Nc3ccc(Cl)c(C(F)(F)F)c3)c(F)c2)ccn1 [regorafenib]
[1]; kinase NuaK1, 1 μM
  %-inhibition of NuaK1: -1.75%
[2]; kinase JAK2, compound at 1 μM
  %-inhibition of JAK2: 33%
[3]; kinase PKD3, 1 μM
  %-inhibition of PKD3: -18%
[4]; kinase AKT1, 1 μM compound
  %-inhibition, AKT1: -5.68%
[5]; kinase FRK, compound at 1 μM
  %-inhibition of FRK: 90%
[6]; kinase NEK4, 1 μM
  %-inhibition of NEK4: -4%
[7]; kinase DAPK1, compound at 1 μM
  %-inhibition of DAPK1: -11%
[8]; kinase EPHA4, compound at 1 μM
  %-inhibition of EPHA4: 92%
[9]; kinase Erk5, compound at 1 μM
  %-inhibition of Erk5: 16%
[10]; kinase EPHA7, compound at 1 μM
  %-inhibition of EPHA7: 84%
[11]; kinase PLK2, 1 μM
  %-inhibition of PLK2: -3.23%
[12]; kinase MST3, 1 μM
  %-inhibition of MST3: -6.62%

## CS(=O)(=O)CCNCc1ccc(-c2ccc3ncnc(Nc4ccc(OCc5cccc(F)c5)c(Cl)c4)c3c2)o1 [lapatinib]
[1]; kinase NuaK1, 1 μM
  %-inhibition of NuaK1: 3%
[2]; kinase JAK2, compound at 1 μM
  %-inhibition of JAK2: -1.58%
[4]; kinase AKT1, 1 μM compound
  %-inhibition, AKT1: 2.63%
[5]; kinase FRK, compound at 1 μM
  %-inhibition of FRK: 0.586%
[6]; kinase NEK4, 1 μM
  %-inhibition of NEK4: 0.649%
[7]; 1 µM
  %-inhibition of DAPK1: -6%
[8]; kinase EPHA4, compound at 1 μM
  %-inhibition of EPHA4: -0.823%
[9]; 1 µM
  %-inhibition of Erk5: -0.8%
[10]; kinase EPHA7, compound at 1 μM
  %-inhibition of EPHA7: 6.56%
[11]; kinase PLK2, 1 μM
  %-inhibition of PLK2: -4%
[12]; kinase MST3, 1 μM
  %-inhibition of MST3: -1.84%

## COc1cc2nccc(Oc3ccc(NC(=O)C4(C(=O)Nc5ccc(F)cc5)CC4)cc3)c2cc1OC [cabozantinib]
[1]; kinase NuaK1, 1 μM
  %-inhibition of NuaK1: 7%
[2]; kinase JAK2, compound at 1 μM
  %-inhibition of JAK2: 29%
[3]; kinase PKD3, 1 μM
  %-inhibition of PKD3: -0.766%
[4]; kinase AKT1, 1 μM compound
  %-inhibition, AKT1: -4.52%
[6]; kinase NEK4, 1 μM
  %-inhibition of NEK4: 16%
[7]; kinase DAPK1, compound at 1 μM
  %-inhibition of DAPK1: -10%
[8]; kinase EPHA4, compound at 1 μM
  %-inhibition of EPHA4: 97%
[9]; kinase Erk5, compound at 1 μM
  %-inhibition of Erk5: -2%
[10]; kinase EPHA7, compound at 1 μM
  %-inhibition of EPHA7: 99%
[11]; kinase PLK2, 1 μM
  %-inhibition of PLK2: 4.4%
[12]; kinase MST3, 1 μM
  %-inhibition of MST3: 0.432%

## C#Cc1cccc(Nc2ncnc3cc(OCCOC)c(OCCOC)cc23)c1 [erlotinib]
[1]; 1 µM
  %-inhibition of NuaK1: 12%
[2]; 1 µM
  %-inhibition of JAK2: 36%
[3]; 1 µM
  %-inhibition of PKD3: 8%
[4]; 1 µM
  %-inhibition, AKT1: 12%
[5]; 1 µM
  %-inhibition of FRK: 41%
[6]; 1 µM
  %-inhibition of NEK4: 0.778%
[7]; 1 µM
  %-inhibition of DAPK1: 1.08%
[8]; 1 µM
  %-inhibition of EPHA4: 32%
[9]; 1 µM
  %-inhibition of Erk5: 21%
[10]; 1 µM
  %-inhibition of EPHA7: 46%
[11]; 1 µM
  %-inhibition of PLK2: -3.59%
[12]; 1 µM
  %-inhibition of MST3: 3.69%

Source: article PMC3961306, “Comparison of the Cancer Gene Targeting and Biochemical Selectivities of All Targeted Kinase Inhibitors Approved for Clinical Use” (PLoS ONE, 2014)
